Converted amounts (≈) assume the structure as drawn. “And” between values parts separate entries of the source, which are not always exact repeats. Equal entries are not always repeated.
Columns and labels:
[1] = Fenton reaction degradation of PAHs in Quakertown silt loam; conditions: for % reduced / degraded by Fenton reaction: ratio 10:1 ([H2O2:FeSO4]=[2.0 g:0.2 g]), 24-h oxidation, model soil
[2] = Hydrogen peroxide oxidation of PAHs at near neutral pH (modified Fenton's reagent) in Quakertown silt loam
[3] = Logarithm of the octanol: water partition coefficient; cited from earlier work
[4] = at 20° C.; cited from earlier work
[5] = Fenton reaction degradation of PAHs in MGP soil; conditions: FR: Fenton's reagent treatment for 24 hours
Description: Coal tar-contaminated soil was collected from a former manufactured gas plant site in New Jersey. The soil was classified as loamy sand, consisting of 78% sand, 11% silt, and 11% clay.
Fenton's reagent was generated by mixing hydrogen peroxide (30%, w/v) with FeSO4.7H2O in varying ratios to determine the optimum conditions for the degradation of PAHs. The sequence of reagent addition seemed to be important to ensure that the reaction occurred efficiently, as well as to ensure that the reaction could be safely maintained. Desired amounts of ferrous sulfate were added to 10 g of PAHs-spiked soil or 5 g of MGP soil in 20 mL of distilled water containing 0.02% HgCl2. To the soil slurry, hydrogen peroxide was introduced gradually by pipetting (ca. 0.3 g each with 10-min intervals), and the reaction was allowed to occur for 24 h on an orbital platform shaker at room temperature.
The soil slurry used for either biodegradation or Fenton-type reaction, or both, was transferred to a 50-mL Teflon centrifuge tube and centrifuged at 18,600× g for 15 min. After removing the supernatant, 10 mL each of dichloromethane and acetone were added to the soil and the soil-solvent suspension was shaken (200 rpm) for 48 h at 30° C. for the extraction of PAHs. The tube was then centrifuged at 18,600× g for 15 min and the solvent mixture was transferred to a 50-mL test tube. After removing excess water (upper layer; ca. 2 mL) by pipetting, 4 g of anhydrous sodium sulfate were mixed with the PAHs-containing solvent to remove residual water completely from solvent. […] The extract was then concentrated to 1 to 2 mL using an evaporator (Büchi Rotavapor; Buchler Instruments Inc., Fort Lee, N.J.) for further analysis.
The extract was passed through a 0.45-μm PTFE syringe filter to remove any particulates present and analyzed by a gas chromatograph (GC) equipped with a flame ionization detector (Varian Star 3500; Varian Chromatograph Systems, Walnut, Calif.). The GC was installed with a Rtx-5 silica column crossbonded with 5% diphenyl and 95% dimethylpolysiloxane (30 m×0.53 mm inner diameter; Restek Corporation, Bellefonte, Pa.). The oven temperature was programmed at 40° C. for 6 min, followed by a linear increase of 10° C. per minute to 300° C., and then the temperature was held for 15 min. Injector and detector temperatures were maintained at 300° C. Two microliters of the extract were injected and nitrogen was used as a carrier gas.

[6] = Crystal solubility at 25° C.; cited from earlier work
[7] = Hydrogen Peroxide (2g), 100 mg Ferrous Sulfate, Quakertown silt loam
[8] = Hydrogen Peroxide (2g), 200 mg Ferrous Sulfate, Data from TABLE 3
[9] = Hydrogen Peroxide (2g), No FeSO4, Quakertown silt loam
[10] = ratio 5:1, [H2O2:FeSO4] = [1.0 g:0.2 g], 24 h, Quakertown silt loam
[11] = ratio 10:1 (footnote d), [H2O2:FeSO4] = [0.2 g:0.2 g] [sic], 24 h, Quakertown silt loam
[12] = ratio 10:1 (footnote e), [H2O2:FeSO4] = [1.0 g:0.1 g], 24 h, Quakertown silt loam
[13] = ratio head 1.1, [H2O2:FeSO4] = [0.2 g:0.2 g], 24 h, Quakertown silt loam
[14] = mFR + gallic acid, pH ca. 6.0-6.5

Structure (SMILES) | % remaining in soil [1, 7] | % remaining in soil [1, 8] | % remaining in soil [1, 9] | % remaining in soil [1, 10] | % remaining in soil [1, 11] | % remaining in soil [1, 12] | % remaining in soil [1, 13] | % remaining in soil ([2]; FR + CaCO3, pH ca. 6.0-6.5) | % remaining in soil ([2]; mFR + catechol, pH ca. 6.0-6.5) | % remaining in soil [2, 14] | Log Kow [3] | Vapor Pressure [4] | % remaining in soil [5] | Solubility in water [6] | % reduced / degraded by Fenton reaction [1]
c1ccc2c(c1)cc1ccc3cccc4ccc2c1c34 [Benzo(a)pyrene, benzo(a)pyrene] | 10.5b % | 3.3c % | 73.2a % | 35.3b % | 3.3% and 3.3c % | 60.9d % | 84.8a % | 73.1a % | 54.8b % | 49.6b % |  |  |  |  | 
c1ccc2c(c1)Cc1ccccc1-2 [Fluorene, fluorene] |  |  |  |  |  |  |  |  |  |  | 4.18 | 1.3 × 10^−2 | 10.3a % |  | 
c1ccc2ccccc2c1 [Naphthalene, naphthalene] |  |  |  |  |  |  |  |  |  |  |  | 4.9 × 10^−2 |  | 32 µg/mL (≈ 250 µM) | 
c1ccc2c(c1)ccc1c3ccccc3ccc21 [Chrysene, chrysene] | 72.6a % | 88.1b % | 77.0ab % | 87.0b % | 88.1b % | 98.2c % | 100a % | 100a % | 100a % | 91.1b % | 5.61 | 6.3 × 10^−7 | 50.8b % | 0.006 µg/mL (≈ 0.0263 µM) | ~12%
c1ccc2c(c1)ccc1ccccc12 [Phenanthrene, phenanthrene] |  |  |  |  |  |  |  |  |  |  | 4.46 | 6.8 × 10^−4 | 16.8a % | 1.0 µg/mL (≈ 5.61 µM) | 
c1ccc2cc3ccccc3cc2c1 [Anthracene, anthracene] | 76.3b % | 61.9c % | 92.7a % | 75.9b % | 61.9c % | 79.3b % | 100a % | 78.1a % | 70.8ab % | 66.8b % | 4.45 | 1.9 × 10^−4 |  | 0.07 µg/mL (≈ 0.393 µM) | about 40%
c1cc2ccc3cccc4ccc(c1)c2c34 [Pyrene, pyrene] | 16.3b % | 15.5c % | 88.3a % | 51.0b % | 15.5c % | 26.3d % | 95.4a % | 77.1a % | 58.3b % | 58.9b % | 5.32 | 6.8 × 10^−7 | 53.4a % |  | 

— patent US20020034421A1, “Remediation of contaminates including low bioavailability hydrocarbons” (priority 2000, published 2002)
